In patent US12729377B2, “RNAi agents and compositions for inhibiting expression of angiopoietin-like 3 (ANGPTL3), and methods of use” (Arrowhead Pharmaceuticals, Inc., priority 2017, dated 2026):
In the oligonucleotide strings, read from the 5' end, every base follows the letter of its sugar. An asterisk marks phosphorothioate; unmarked linkages are phosphodiester. Other units and linkages are bracketed, terminal groups are in braces. A string of capitals states the bases alone. {NAG37} = tridentate N-acetyl-galactosamine targeting ligand, structure (NAG37)s; [invAb] = inverted abasic unit; m = 2'-O-methyl; f = 2'-fluoro

Tested on: ANGPTL3 gene
Assay: Example 11: dose response, serum HDL in mice
Format: in vivo, C57bl/6 mice
Procedure: To assess the dose response of ANGPTL3 RNAi agent AD05488, six- to eight-week-old female C57bl/6 mice were used. Pre-dose serum samples were taken at day −1 after a four hour fast. At day 1, each mouse was given a single subcutaneous administration of 200 μl containing the respective mg/kg dose of an ANGPTL3 RNAi agent in D5W (dextrose in 5% water), or control (D5W) with no RNAi agent, according to the dosing groups recited in Table 53:
The RNAi agent tested (AD05488) included a modified sequence and an N-acetyl-galactosamine-containing targeting ligand conjugated to the 5′ terminal end of the sense strand. (See Tables 3, 4, and 5 for modified sequences and targeting ligand structures). The injections were performed between the skin and muscle (i.e. subcutaneous injections) into the loose skin over the neck and shoulder area. Four (4) mice in each group were tested (n=4). Serum was collected on days 8, 15, 22, and 29. Mice were fasted for four hours prior to each collection. ANGPTL3 protein levels in serum were measured by ELISA assay (R&D Systems), according to the manufacturer's recommendations. Triglycerides, total cholesterol, high-density lipoprotein (HDL), and low-density lipoprotein (LDL) in serum were measured on a Cobas® Integra 400 (Roche Diagnostics), according to the manufacturer's recommendations.
The ANGPTL3 protein levels, triglyceride levels, total cholesterol levels, HDL levels, and LDL levels for each animal were normalized. For normalization, the level of ANGPTL3 protein, triglyceride, HDL, and total cholesterol, respectively, for each animal at a time point, was divided by the pre-treatment level of expression in that animal (in this case at day −1) to determine the ratio of expression “normalized to pre-treatment.” Expression at a specific time point was then normalized to the D5W control group by dividing the “normalized to pre-treatment” ratio for an individual animal by the mean “normalized to pretreatment” ratio of all mice in the D5W control group.

AD05488: RNAi agent duplex: antisense AM07235-AS, sense AM07234-SS (antisense mU*fA*mC*fUmGfAmUfCmAfAmAfUmAfUmGfUmUfGmAfG*mC; sense {NAG37}*[invAb]*mGmCmUmCmAmAmCmAfUfAfUmUmUmGmAmUmCmAmGmUmA*[invAb])
Avg HDL Normalized to Pre-Treatment and Control (0.05 mg/kg single sc day 1, Day 8): 0.851 | Avg HDL Normalized to Pre-Treatment and Control (0.05 mg/kg single sc day 1, Day 15): 1.052 | Avg HDL Normalized to Pre-Treatment and Control (0.05 mg/kg single sc day 1, Day 22): 0.982 | Avg HDL Normalized to Pre-Treatment and Control (0.05 mg/kg single sc day 1, Day 29): 0.894 | Avg HDL Normalized to Pre-Treatment and Control (0.1 mg/kg single sc day 1, Day 8): 0.807 | Avg HDL Normalized to Pre-Treatment and Control (0.1 mg/kg single sc day 1, Day 15): 0.950 | Avg HDL Normalized to Pre-Treatment and Control (0.1 mg/kg single sc day 1, Day 22): 0.806 | Avg HDL Normalized to Pre-Treatment and Control (0.1 mg/kg single sc day 1, Day 29): 0.910 | Avg HDL Normalized to Pre-Treatment and Control (0.5 mg/kg single sc day 1, Day 8): 0.727 | Avg HDL Normalized to Pre-Treatment and Control (0.5 mg/kg single sc day 1, Day 15): 0.876 | Avg HDL Normalized to Pre-Treatment and Control (0.5 mg/kg single sc day 1, Day 22): 0.906 | Avg HDL Normalized to Pre-Treatment and Control (0.5 mg/kg single sc day 1, Day 29): 0.897 | Avg HDL Normalized to Pre-Treatment and Control (1.0 mg/kg single sc day 1, Day 8): 0.575 | Avg HDL Normalized to Pre-Treatment and Control (1.0 mg/kg single sc day 1, Day 15): 0.785 | Avg HDL Normalized to Pre-Treatment and Control (1.0 mg/kg single sc day 1, Day 22): 0.839 | Avg HDL Normalized to Pre-Treatment and Control (1.0 mg/kg single sc day 1, Day 29): 0.888 | Avg HDL Normalized to Pre-Treatment and Control (2.5 mg/kg single sc day 1, Day 8): 0.618 | Avg HDL Normalized to Pre-Treatment and Control (2.5 mg/kg single sc day 1, Day 15): 0.787 | Avg HDL Normalized to Pre-Treatment and Control (2.5 mg/kg single sc day 1, Day 22): 0.782 | Avg HDL Normalized to Pre-Treatment and Control (2.5 mg/kg single sc day 1, Day 29): 0.701 | Avg HDL Normalized to Pre-Treatment and Control (5.0 mg/kg single sc day 1, Day 8): 0.534 | Avg HDL Normalized to Pre-Treatment and Control (5.0 mg/kg single sc day 1, Day 15): 0.717 | Avg HDL Normalized to Pre-Treatment and Control (5.0 mg/kg single sc day 1, Day 22): 0.760 | Avg HDL Normalized to Pre-Treatment and Control (5.0 mg/kg single sc day 1, Day 29): 0.759
